Calls of active or inactive are those of the source. The rule behind the calls is not given here.

For one assay, the target named is D(1A) dopamine receptor (Homo sapiens, UniProt P21728). Nature of the assay: Agonist activity at human recombinant dopamine D1 receptor expressed in CHO cells assessed as stimulation of cAMP production. The assay is classed as functional, cell-based.
A further assay concerns the target D(2) dopamine receptor (Homo sapiens, UniProt P14416). Nature of the assay: Agonist activity at human dopamine D2 receptor expressed in CHO cells assessed as inhibition of forskolin-stimulated cAMP production. It is filed as functional, cell-based.
The subject of assay [1] is Rattus norvegicus. Description: Decrease in dopamine release in Wistar rat striatal at 1 nmol/kg, sc after 90 mins. The assay is classed as functional. The arrangement: scale not given: the % may be the effect or the level left.
The test system of assay [2] is Rattus norvegicus. Nature of the assay: Decrease in dopamine release in Wistar rat striatal at 10 nmol/kg, sc after 90 mins. It is filed as functional. The arrangement: scale not given: the % may be the effect or the level left.
Assay [3] deals with Rattus norvegicus. Description: Decrease in dopamine release in Wistar rat striatal at 1 nmol/kg, sc after 6 hrs. It is filed as functional. The arrangement: scale not given: the % may be the effect or the level left.
The subject of assay [4] is Rattus norvegicus. Nature of the assay: Decrease in dopamine release in Wistar rat striatal at 100 nmol/kg, po after 45 mins. The assay is classed as functional. The arrangement: scale not given: the % may be the effect or the level left.
Assay [5] concerns Rattus norvegicus. Description: Induction of locomotor activity in Wistar rat at 10 nmol/kg, sc. The assay is classed as functional, organism-based.
Assay [6] deals with Rattus norvegicus. Nature of the assay: Induction of penile grooming in Wistar rat at 10 nmol/kg, sc. The assay is classed as functional, organism-based.
Assay [7] deals with Rattus norvegicus. Nature of the assay: Induction of yawning in Wistar rat at 10 nmol/kg, sc. It is filed as functional, organism-based.
Assay [8] has as its system Rattus norvegicus. Description: Induction of sniffing in Wistar rat at 10 nmol/kg, sc. The assay is classed as functional, organism-based.
Assay [9] has as its system Rattus norvegicus. Nature of the assay: Induction of rearing grooming in Wistar rat at 10 nmol/kg, sc. The assay is classed as functional, organism-based.

Chain of D(2) dopamine receptor (P14416 whole entry): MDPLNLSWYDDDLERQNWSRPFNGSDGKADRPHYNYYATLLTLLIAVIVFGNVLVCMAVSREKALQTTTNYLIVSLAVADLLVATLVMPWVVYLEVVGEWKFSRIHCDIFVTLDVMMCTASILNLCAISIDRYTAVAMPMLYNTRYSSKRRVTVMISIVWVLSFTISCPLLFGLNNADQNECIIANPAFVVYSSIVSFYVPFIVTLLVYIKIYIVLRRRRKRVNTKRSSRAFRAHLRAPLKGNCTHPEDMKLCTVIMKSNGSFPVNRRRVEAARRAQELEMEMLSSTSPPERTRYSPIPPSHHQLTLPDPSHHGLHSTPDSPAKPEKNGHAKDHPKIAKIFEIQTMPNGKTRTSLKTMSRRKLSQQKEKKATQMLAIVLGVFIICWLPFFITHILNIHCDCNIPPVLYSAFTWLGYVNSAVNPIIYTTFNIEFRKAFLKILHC
Chain of D(1A) dopamine receptor (P21728 whole entry): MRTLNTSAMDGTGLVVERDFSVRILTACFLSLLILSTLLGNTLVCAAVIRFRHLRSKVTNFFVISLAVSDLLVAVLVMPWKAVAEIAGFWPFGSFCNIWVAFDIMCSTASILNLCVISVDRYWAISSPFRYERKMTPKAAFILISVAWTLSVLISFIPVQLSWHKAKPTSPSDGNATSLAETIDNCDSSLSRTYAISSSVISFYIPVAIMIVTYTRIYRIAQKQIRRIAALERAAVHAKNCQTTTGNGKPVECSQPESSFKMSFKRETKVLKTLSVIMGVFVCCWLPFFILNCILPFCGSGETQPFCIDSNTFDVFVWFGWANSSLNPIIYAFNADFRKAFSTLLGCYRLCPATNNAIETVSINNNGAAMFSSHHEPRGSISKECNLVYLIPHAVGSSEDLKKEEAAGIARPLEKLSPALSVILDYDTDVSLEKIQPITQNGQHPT

In the case of `CCCN1CCC[C@@H]2Cc3c(ccc(O)c3O)C[C@H]21`, the EC50 worked out at 25 nM on D(1A) dopamine receptor and 0.65 nM on D(2) dopamine receptor. In addition, the Activity is 20% with Rattus norvegicus [1], 30% in the assay on Rattus norvegicus [2], 30% in the assay on Rattus norvegicus [3] and 40% in the assay on Rattus norvegicus [4]. In addition, the result in the assay with Rattus norvegicus [5], with Rattus norvegicus [6], with Rattus norvegicus [7], in the assay on Rattus norvegicus [8] and in the assay with Rattus norvegicus [9] was Active.

Source of the values: ChEMBL document CHEMBL1142439 (Bioorg Med Chem, 2008).
